Measurements from patent US7163949B1, “4-phenyl substituted tetrahydroisoquinolines and use thereof” (AMR Technology, Inc., priority 1999, dated 2007).
Where a name gives a salt, the structure may show the parent alone.

System: not given
Details: not given

SMILES	melting point
CN1Cc2cc(C(F)(F)F)ccc2C(c2ccccc2)C1 (stereo not shown)	257 to 275 °C
Cc1ccc2c(c1)C(C)N(C)CC2c1ccccc1 (stereo not shown)	87 to 89 °C
FCc1ccc2c(c1CF)CN(CF)CC2c1ccccc1 (stereo not shown)	108 to 113 °C
Cc1c(F)ccc2c1CN(C)CC2c1ccccc1 (stereo not shown)	185 to 186 °C
COc1c(C)ccc2c1CN(C)CC2c1ccccc1 (stereo not shown)	130 to 131 °C
Cc1ccc2c(c1O)CN(C)CC2c1ccccc1 (stereo not shown)	260 to 261 °C
CN1Cc2cc(OC(F)(F)F)ccc2C(c2ccccc2)C1 (stereo not shown)	150 to 151 °C (dec.)
CN1Cc2cc(Oc3ccccc3)ccc2C(c2ccccc2)C1 (stereo not shown)	175 to 176 °C (dec.)
CN1Cc2cc(OCc3ccccc3)ccc2C(c2ccccc2)C1 (stereo not shown)	155 to 156 °C
Cc1ccc2c(c1)CN(C)CC2c1ccc(F)c(C)c1 (stereo not shown)	174 to 175 °C
CN1Cc2c(CO)cccc2C(c2ccccc2)C1 (stereo not shown)	144 to 146 °C
Cc1cc(F)c2c(c1)C(C)N(C)C(F)C2c1ccccc1 (stereo not shown) (as salt: HCl)	194 to 197 °C (dec.)
CNCc1ccc2c(c1F)CN(C)CC2c1ccccc1 (stereo not shown) (as salt: HCl)	185 to 205 °C
CN1Cc2cc(CO)ccc2C(c2ccccc2)C1 (stereo not shown) (as salt: HCl)	237 to 240 °C (dec.)
Cc1ccc2c(c1F)CN(C)CC2c1ccccc1 (stereo not shown) (as salt: hydrochloride)	215 to 216 °C

System: dopamine transporter protein over the norepinephrine transporter protein
Details: selectivity for dopamine transporter protein over norepinephrine transporter protein; cited from earlier work

SMILES	DAT/NET Ki ratio
COC(=O)C(c1ccccc1)C1CCCCN1 (stereo not shown) [Methylphenidate]	0.1
